Experiments:
[1] = test system: rats; conditions: cited from earlier work
[2] = test system: dispersed Caco-2 cells; assay: Uptake of vitamin D from mixed micelles by dispersed Caco-2 cells; assay type: in vitro ADME, human; conditions: dispersed Caco-2 cells, 2 h
Description: (§1) Since 2001, we have reported that lysophospholipids enhance the uptake of micellar carotenoids in Caco-2 cells. […] In the present study, using the same method, we examined whether the mechanism for the enhancing effect of lysophosphatidylcholine could be adapted to vitamin D, as well. To evaluate the impact of the degree of cell-cell adhesion/cell-matrix adhesion on vitamin D uptake by cells, we prepared in two different ways: i) dispersed Caco-2 cells without cell-cell adhesion/cell-matrix adhesion and ii) Caco-2 cells with insufficient cell-cell adhesion.
(i): The dispersed cells were prepared by trypsin treatment. After collecting the cells in the culture medium, the number of cells was counted and diluted with the medium. The cells were washed two times with FBS-free DMEM and then seeded in culture plate of 24-well for suspension cultures (SC plate; Greiner Bio-One, Frickenhausen, Germany) at a density of 15 × 10^4 cells per well containing the FBS-free DMEM (0.5 mL).
(§2) Subsequent operations are common to the two models of cells. The medium consisting of mixed micellar vitamin D (0.5 mL) was added to adhered cells or dispersed cells in individual wells containing FBS-free DMEM (0.5 mL), resulting in a total medium volume of 1.0 mL/well, and the final start concentrations of mixed micellar components were one-half the initial concentration. The cells were incubated in the same conditions as described above, i.e., in a CO2 incubator at 37 °C for 2 h, and then the cells were washed with 2 mM taurocholate/PBS, followed by two times with PBS. The vitamin D uptake and residual mixed micellar vitamin D were evaluated as the previous subsection, but the filtrate of residual mixed micellar vitamin D was diluted with a 2x-volume of H2O. The cellular protein content was also determined as above.

[3] = test system: chicks; conditions: cited from earlier work
[4] = test system: rats; conditions: line test, vitamins D provided as a crystal; cited from earlier work
[5] = test system: Caco-2 cells with insufficient cell-cell adhesion; assay: Uptake of vitamin D2 by adherent Caco-2 cells with insufficient cell-cell adhesion; assay type: in vitro ADME, human; conditions: 2-h incubation
Description: as §1
(ii): The cells that had insufficient cell-cell adhesion were prepared by reducing the culture period from 20–22 d for full differentiation to <7 d after the seeding described above.
as §2

[6] = test system: rats; parameters: method as in PMID 9017001; conditions: cited from earlier work

SMILES | Intestinal absorption compared with vitamin D3 [1] | Vitamin-D2 uptake from lysoPC mixed micelles relative to that from NoPC mixed micelles [2] | Intestinal absorption compared with vitamin D3 or D4 [3] | Anti-rickets activity, comparison of vitamins D [4] | Vitamin D2 uptake, NoPC vs lysoPC mixed micelles ([5]; Caco-2 cells cultured for 3 d) | Vitamin D2 uptake, NoPC vs lysoPC mixed micelles ([5]; Caco-2 cells cultured for 5 d) | Vitamin D2 uptake, NoPC vs lysoPC mixed micelles ([5]; Caco-2 cells cultured for 7 d) | Activity for increasing the blood concentration of calcium relative to 1,25-di(OH)-vitamin D3 [6]
C=C1CC[C@H](O)C/C1=C/C=C1\CCC[C@]2(C)[C@@H]([C@H](C)/C=C/[C@H](C)C(C)C)CC[C@@H]12 [Vitamin D2] | slightly more easily absorbed than vitamin D3 | approximately one-sixth | less absorbed than vitamin D3 | highest activities and were similar | significantly higher by cells cultured for 3 d from NoPC mixed micelles | no difference in the uptake amounts between NoPC mixed micelles and lysoPC mixed micelles | uptake from lysoPC mixed micelles were significantly higher than those from NoPC mixed micelles | 
C=C1/C(=C\C=C2/CCC[C@]3(C)[C@@H]([C@H](C)CC[C@@H](CC)C(C)C)CC[C@@H]23)C[C@@H](O)C[C@@H]1O [1-OH-vitamin D5] |  |  |  |  |  |  |  | approximately one-sixth
